Measured values reported in patent US8952024B2, “Herbicidal pyrimidone derivatives” (E I du Pont de Nemours and Company, priority 2009, dated 2015).
Like-named read-outs stand apart in the source and are kept apart here.

Experiments:
Test in all cases: Test B pre-/postemergence plant response
Assay type in all cases: in vivo
[1] = test system: pigweed (Amaranthus retroflexus); settings: for pest or weed control at 16 g/ha: 16 g ai/ha; for pest or weed control at 16 g/ha / pest or weed control at 31 g/ha / pest or weed control at 62 g/ha: read-out: Plant response rating, Pigweed; for pest or weed control at 31 g/ha: 31 g ai/ha; for pest or weed control at 62 g/ha: 62 g ai/ha
Summary of the method: (§1)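 Visual injury, 0–100 scale (100 = complete control), rated against controls after 13 to 15 days in greenhouse. Pre-emergence: seeds in loam/sand soil, treated at planting. Post-emergence: 1- to 4-leaf plants (2 to 18 cm) in peat/vermiculite medium. Compounds formulated in non-phytotoxic solvent with surfactant.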

[2] = test system: soybean (Glycine max); settings: for plant injury at 31 g/ha: 31 g ai/ha, scale 0 to 100 (0 no effect, 100 complete control); for plant injury at 62 g/ha: 62 g ai/ha
Summary of the method: as §1

[3] = test system: giant foxtail (Setaria faberii); settings: for pest or weed control at 16 g/ha: 16 g ai/ha; for pest or weed control at 16 g/ha / pest or weed control at 31 g/ha / pest or weed control at 62 g/ha: read-out: Plant response rating, Foxtail, Giant; for pest or weed control at 31 g/ha: 31 g ai/ha; for pest or weed control at 62 g/ha: 62 g ai/ha
Summary of the method: as §1

[4] = test system: johnsongrass (Sorghum halepense); settings: for pest or weed control at 16 g/ha: 16 g ai/ha; for pest or weed control at 16 g/ha / pest or weed control at 31 g/ha / pest or weed control at 62 g/ha: read-out: Plant response rating, Johnsongrass; for pest or weed control at 31 g/ha: 31 g ai/ha; for pest or weed control at 62 g/ha: 62 g ai/ha
Summary of the method: as §1

[5] = test system: cocklebur (Xanthium strumarium); settings: for pest or weed control at 16 g/ha: 16 g ai/ha; for pest or weed control at 16 g/ha / pest or weed control at 31 g/ha / pest or weed control at 62 g/ha: read-out: Plant response rating, Cocklebur; for pest or weed control at 31 g/ha: 31 g ai/ha; for pest or weed control at 62 g/ha: 62 g ai/ha
Summary of the method: as §1

[6] = test system: ragweed (common ragweed, Ambrosia elatior); settings: for pest or weed control at 31 g/ha: 31 g ai/ha; for pest or weed control at 62 g/ha: 62 g ai/ha
Summary of the method: as §1

[7] = test system: kochia (Kochia scoparia); settings: for pest or weed control at 16 g/ha: 16 g ai/ha; for pest or weed control at 16 g/ha / pest or weed control at 31 g/ha / pest or weed control at 62 g/ha: read-out: Plant response rating, Kochia; for pest or weed control at 31 g/ha: 31 g ai/ha; for pest or weed control at 62 g/ha: 62 g ai/ha
Summary of the method: as §1

[8] = Amaranthus retroflexus, pre-emergence, Preemergence, scale 0 to 100 (0 no effect, 100 complete control)
[9] = Preemergence, 125 g ai/ha, 0 to 100 scale
[10] = Setaria faberi, pre-emergence, Preemergence, scale 0 to 100 (0 no effect, 100 complete control)
[11] = Sorghum halepense, pre-emergence, Preemergence, scale 0 to 100 (0 no effect, 100 complete control)
[12] = Xanthium strumarium, pre-emergence, Preemergence, scale 0 to 100 (0 no effect, 100 complete control)
[13] = Ambrosia artemisiifolia, pre-emergence, 360 h, Preemergence, scale 0 to 100 (0 no effect, 100 complete control), read-out: Plant response rating, Ragweed
[14] = Bassia scoparia, pre-emergence, Preemergence, scale 0 to 100 (0 no effect, 100 complete control)

For `O=C1CCCC(O)=C1C(=O)c1cnc(-c2ccccc2)n(-c2ccccc2)c1=O` [Compound 2, 5-[(2-hydroxy-6-oxo-1-cyclohexen-1-yl)carbonyl]-2,3-diphenyl-4(3H)-pyrimidinone], which pest or weed control at 16 g/ha ([1]; Amaranthus retroflexus, post-emergence, Postemergence, 0 to 100 scale) is on record?
The pest or weed control at 16 g/ha was 70%.

What about the pest or weed control at 31 g/ha ([1]; Amaranthus retroflexus, post-emergence, Postemergence, scale 0 to 100 (0 no effect, 100 complete control)) of the same compound?
Its pest or weed control at 31 g/ha is 85%.

What about the pest or weed control at 62 g/ha ([1]; Amaranthus retroflexus, post-emergence, Postemergence, scale 0 (no effect) to 100 (complete control), 13 to 15 days) of the same compound?
Its pest or weed control at 62 g/ha is 90%.

What about the pest or weed control at 125 g/ha ([1]; Amaranthus retroflexus, post-emergence, Postemergence, 125 g ai/ha, visual rating after 13 to 15 days, scale 0 (no effect) to 100 (complete control)) of the same compound?
Its pest or weed control at 125 g/ha is 95%.

And the pest or weed control at 16 g/ha [1, 8]?
Its pest or weed control at 16 g/ha is 98%.

And the pest or weed control at 31 g/ha [1, 8]?
Its pest or weed control at 31 g/ha is 100%.

What about the pest or weed control at 62 g/ha [1, 8] of the same compound?
The pest or weed control at 62 g/ha was 100%.

What about the “Pigweed plant response rating” value [1, 9] of the same compound?
Its value is 100.

And the plant injury at 16 g/ha ([2]; Glycine max, post-emergence, 16 g ai/ha, Postemergence, 0 to 100 scale, read-out: Plant response rating, Soybean)?
The plant injury at 16 g/ha was 75%.

And the plant injury at 31 g/ha ([2]; Glycine max, post-emergence, Postemergence, read-out: Plant response rating, Soybean)?
Its plant injury at 31 g/ha is 80%.

And the plant injury at 62 g/ha ([2]; Glycine max, post-emergence, Postemergence, scale 0 (no effect) to 100 (complete control), 13 to 15 days, read-out: Plant response rating, Soybean)?
The plant injury at 62 g/ha was 90%.

And the plant injury at 125 g/ha ([2]; Glycine max, post-emergence, Postemergence, 125 g ai/ha, visual rating after 13 to 15 days, scale 0 (no effect) to 100 (complete control))?
The plant injury at 125 g/ha was 95%.

What about the plant injury at 31 g/ha ([2]; Glycine max, pre-emergence, Preemergence, read-out: Plant response rating, Soybean) of the same compound?
The plant injury at 31 g/ha was 15%.

What about the plant injury at 62 g/ha ([2]; Glycine max, pre-emergence, Preemergence, scale 0 to 100, 0 no effect, 100 complete control, read-out: Plant response rating, Soybean) of the same compound?
The plant injury at 62 g/ha was 60%.

What about the “Soybean plant response rating” value [2, 9] of the same compound?
Its value is 70.

What about the “Foxtail, Giant plant response rating” value [3, 9] of the same compound?
Its value is 70.

What about the pest or weed control at 16 g/ha ([3]; Setaria faberi, post-emergence, Postemergence, 0 to 100 scale) of the same compound?
Its pest or weed control at 16 g/ha is 70%.

What about the pest or weed control at 31 g/ha ([3]; Setaria faberi, post-emergence, Postemergence, scale 0 to 100 (0 no effect, 100 complete control)) of the same compound?
The pest or weed control at 31 g/ha was 85%.

And the pest or weed control at 62 g/ha ([3]; Setaria faberi, post-emergence, Postemergence, scale 0 (no effect) to 100 (complete control), 13 to 15 days)?
The pest or weed control at 62 g/ha was 85%.

And the pest or weed control at 125 g/ha ([3]; Setaria faberi, post-emergence, Postemergence, 125 g ai/ha, visual rating after 13 to 15 days, scale 0 (no effect) to 100 (complete control))?
Its pest or weed control at 125 g/ha is 85%.

And the pest or weed control at 16 g/ha [3, 10]?
Its pest or weed control at 16 g/ha is 0%.

And the pest or weed control at 31 g/ha [3, 10]?
Its pest or weed control at 31 g/ha is 15%.

What about the pest or weed control at 62 g/ha ([3]; Setaria faberi, pre-emergence, Preemergence, scale 0 to 100, 0 no effect, 100 complete control) of the same compound?
The pest or weed control at 62 g/ha was 20%.

What about the “Johnsongrass plant response rating” value [4, 9] of the same compound?
Its value is 80.

And the pest or weed control at 16 g/ha ([4]; Sorghum halepense, post-emergence, Postemergence, 0 to 100 scale)?
Its pest or weed control at 16 g/ha is 75%.

And the pest or weed control at 31 g/ha ([4]; Sorghum halepense, post-emergence, Postemergence, scale 0 to 100 (0 no effect, 100 complete control))?
Its pest or weed control at 31 g/ha is 85%.

What about the pest or weed control at 62 g/ha ([4]; Sorghum halepense, post-emergence, Postemergence, scale 0 (no effect) to 100 (complete control), 13 to 15 days) of the same compound?
The pest or weed control at 62 g/ha was 90%.

What about the pest or weed control at 125 g/ha ([4]; Sorghum halepense, post-emergence, Postemergence, 125 g ai/ha, visual rating after 13 to 15 days, scale 0 (no effect) to 100 (complete control)) of the same compound?
The pest or weed control at 125 g/ha was 98%.

And the pest or weed control at 16 g/ha [4, 11]?
The pest or weed control at 16 g/ha was 0%.

What about the pest or weed control at 31 g/ha [4, 11] of the same compound?
Its pest or weed control at 31 g/ha is 60%.

What about the pest or weed control at 62 g/ha ([4]; Sorghum halepense, pre-emergence, Preemergence, scale 0 to 100, 0 no effect, 100 complete control) of the same compound?
Its pest or weed control at 62 g/ha is 65%.

And the “Cocklebur plant response rating” value [5, 9]?
Its value is 80.

And the pest or weed control at 16 g/ha ([5]; Xanthium strumarium, post-emergence, Postemergence, 0 to 100 scale)?
Its pest or weed control at 16 g/ha is 75%.

What about the pest or weed control at 31 g/ha ([5]; Xanthium strumarium, post-emergence, Postemergence, scale 0 to 100 (0 no effect, 100 complete control)) of the same compound?
Its pest or weed control at 31 g/ha is 80%.

What about the pest or weed control at 62 g/ha ([5]; Xanthium strumarium, post-emergence, Postemergence, scale 0 (no effect) to 100 (complete control), 13 to 15 days) of the same compound?
Its pest or weed control at 62 g/ha is 90%.

What about the pest or weed control at 125 g/ha ([5]; Xanthium strumarium, post-emergence, Postemergence, 125 g ai/ha, visual rating after 13 to 15 days, scale 0 (no effect) to 100 (complete control)) of the same compound?
The pest or weed control at 125 g/ha was 95%.

And the pest or weed control at 16 g/ha [5, 12]?
The pest or weed control at 16 g/ha was 0%.

And the pest or weed control at 31 g/ha [5, 12]?
The pest or weed control at 31 g/ha was 0%.

What about the pest or weed control at 62 g/ha ([5]; Xanthium strumarium, pre-emergence, Preemergence, scale 0 to 100, 0 no effect, 100 complete control) of the same compound?
The pest or weed control at 62 g/ha was 65%.

And the pest or weed control at 16 g/ha ([6]; Ambrosia artemisiifolia, post-emergence, 360 h, 16 g ai/ha, Postemergence, 0 to 100 scale, read-out: Plant response rating, Ragweed)?
The pest or weed control at 16 g/ha was 65%.

What about the pest or weed control at 31 g/ha ([6]; Ambrosia artemisiifolia, post-emergence, 360 h, Postemergence, scale 0 to 100 (0 no effect, 100 complete control), read-out: Plant response rating, Ragweed) of the same compound?
The pest or weed control at 31 g/ha was 70%.

What about the pest or weed control at 62 g/ha ([6]; Ambrosia artemisiifolia, post-emergence, 360 h, Postemergence, scale 0 (no effect) to 100 (complete control), 13 to 15 days, read-out: Plant response rating, Ragweed) of the same compound?
Its pest or weed control at 62 g/ha is 80%.

What about the pest or weed control at 125 g/ha ([6]; Ambrosia artemisiifolia, post-emergence, 360 h, Postemergence, 125 g ai/ha, visual rating after 13 to 15 days, scale 0 (no effect) to 100 (complete control)) of the same compound?
The pest or weed control at 125 g/ha was 90%.

What about the pest or weed control at 31 g/ha [6, 13] of the same compound?
The pest or weed control at 31 g/ha was 60%.

And the pest or weed control at 62 g/ha [6, 13]?
Its pest or weed control at 62 g/ha is 85%.

What about the “Ragweed plant response rating” value [6, 9] of the same compound?
The value was 98.

And the pest or weed control at 16 g/ha ([7]; Bassia scoparia, post-emergence, Postemergence, 0 to 100 scale)?
The pest or weed control at 16 g/ha was 55%.

What about the pest or weed control at 31 g/ha ([7]; Bassia scoparia, post-emergence, Postemergence, scale 0 to 100 (0 no effect, 100 complete control)) of the same compound?
Its pest or weed control at 31 g/ha is 60%.

And the pest or weed control at 62 g/ha ([7]; Bassia scoparia, post-emergence, Postemergence, scale 0 (no effect) to 100 (complete control), 13 to 15 days)?
Its pest or weed control at 62 g/ha is 75%.

And the pest or weed control at 125 g/ha ([7]; Bassia scoparia, post-emergence, Postemergence, 125 g ai/ha, visual rating after 13 to 15 days, scale 0 (no effect) to 100 (complete control))?
The pest or weed control at 125 g/ha was 80%.

What about the pest or weed control at 16 g/ha [7, 14] of the same compound?
The pest or weed control at 16 g/ha was 0%.

And the pest or weed control at 31 g/ha [7, 14]?
Its pest or weed control at 31 g/ha is 100%.

And the pest or weed control at 62 g/ha [7, 14]?
The pest or weed control at 62 g/ha was 100%.

What about the “Kochia plant response rating” value [7, 9] of the same compound?
Its value is 100.
